According to US12479847B2 (DANA-FARBER CANCER INSTITUTE, INC., priority 2019, dated 2025):

Columns and labels:
Experiment in all cases: KINOMEscan (ScanMAX) kinase profiling
Type in all cases: binding
panel of 468 kinases [1] = target: T1, panel of 468 kinases (Homo sapiens, UniProt P36888, D835H); details: FLT3(D835H); 1 μM; read-out: % control
T1 construct: purchased KINOMEscan (ScanMAX) service
T1 sequence (P36888 27-993 D835H): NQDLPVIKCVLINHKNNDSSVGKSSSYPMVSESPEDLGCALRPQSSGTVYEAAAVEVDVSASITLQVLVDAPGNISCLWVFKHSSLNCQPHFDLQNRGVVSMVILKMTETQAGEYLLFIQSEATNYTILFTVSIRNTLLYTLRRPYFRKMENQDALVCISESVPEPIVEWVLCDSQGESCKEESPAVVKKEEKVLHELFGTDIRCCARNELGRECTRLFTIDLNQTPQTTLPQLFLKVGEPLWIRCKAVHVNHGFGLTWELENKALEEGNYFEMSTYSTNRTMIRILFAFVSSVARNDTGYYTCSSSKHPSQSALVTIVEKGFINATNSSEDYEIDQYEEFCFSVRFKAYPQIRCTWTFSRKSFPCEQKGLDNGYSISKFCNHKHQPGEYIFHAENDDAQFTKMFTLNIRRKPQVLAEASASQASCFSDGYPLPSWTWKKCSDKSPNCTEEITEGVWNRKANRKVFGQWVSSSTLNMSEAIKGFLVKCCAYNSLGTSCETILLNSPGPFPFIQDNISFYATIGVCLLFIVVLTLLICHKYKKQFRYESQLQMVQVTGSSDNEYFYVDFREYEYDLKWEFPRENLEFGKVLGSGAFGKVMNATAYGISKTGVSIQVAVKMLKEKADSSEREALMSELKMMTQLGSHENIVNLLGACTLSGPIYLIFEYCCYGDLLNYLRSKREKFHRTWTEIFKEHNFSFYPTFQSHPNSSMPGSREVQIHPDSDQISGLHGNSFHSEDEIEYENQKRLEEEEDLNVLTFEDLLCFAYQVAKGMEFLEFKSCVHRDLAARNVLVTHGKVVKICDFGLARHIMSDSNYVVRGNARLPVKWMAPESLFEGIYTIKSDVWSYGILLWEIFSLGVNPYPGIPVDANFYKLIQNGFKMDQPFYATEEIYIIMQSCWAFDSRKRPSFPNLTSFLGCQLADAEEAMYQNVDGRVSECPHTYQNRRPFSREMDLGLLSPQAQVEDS

panel of 468 kinases [2] = target: T2, panel of 468 kinases (Homo sapiens, UniProt Q13523); details: PRP4; 1 μM; read-out: % control
T2 construct: purchased KINOMEscan (ScanMAX) service
T2 sequence (Q13523 whole entry): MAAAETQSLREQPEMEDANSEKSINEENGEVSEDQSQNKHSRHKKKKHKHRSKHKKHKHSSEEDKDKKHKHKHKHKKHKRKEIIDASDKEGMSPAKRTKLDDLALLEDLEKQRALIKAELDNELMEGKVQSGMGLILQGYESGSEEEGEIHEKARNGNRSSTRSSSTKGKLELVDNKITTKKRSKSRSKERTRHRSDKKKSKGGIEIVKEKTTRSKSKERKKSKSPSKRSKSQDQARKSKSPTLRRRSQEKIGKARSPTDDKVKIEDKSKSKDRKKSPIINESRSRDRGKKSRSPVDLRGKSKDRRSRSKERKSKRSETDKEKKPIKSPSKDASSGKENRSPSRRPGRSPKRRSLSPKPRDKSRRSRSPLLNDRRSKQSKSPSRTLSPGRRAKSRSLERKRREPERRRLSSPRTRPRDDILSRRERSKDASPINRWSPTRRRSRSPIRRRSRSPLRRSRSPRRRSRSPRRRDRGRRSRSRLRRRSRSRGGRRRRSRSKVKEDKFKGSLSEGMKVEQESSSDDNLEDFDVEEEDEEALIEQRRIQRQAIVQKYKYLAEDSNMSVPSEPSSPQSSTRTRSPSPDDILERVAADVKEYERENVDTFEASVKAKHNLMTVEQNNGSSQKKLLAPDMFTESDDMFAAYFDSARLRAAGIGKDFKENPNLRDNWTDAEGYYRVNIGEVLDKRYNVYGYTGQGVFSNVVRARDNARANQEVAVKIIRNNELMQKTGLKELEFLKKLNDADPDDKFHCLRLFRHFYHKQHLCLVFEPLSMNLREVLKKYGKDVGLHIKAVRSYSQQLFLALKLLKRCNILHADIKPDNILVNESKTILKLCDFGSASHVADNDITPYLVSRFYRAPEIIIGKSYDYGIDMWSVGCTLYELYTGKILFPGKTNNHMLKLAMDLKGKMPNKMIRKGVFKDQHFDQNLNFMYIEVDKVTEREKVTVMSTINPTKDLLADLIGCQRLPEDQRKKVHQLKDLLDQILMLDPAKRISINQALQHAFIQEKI

panel of 468 kinases [3] = target: T3, panel of 468 kinases (Homo sapiens, UniProt Q07002); details: PCTK3; 1 μM; read-out: % control
T3 construct: purchased KINOMEscan (ScanMAX) service
T3 sequence (Q07002 whole entry): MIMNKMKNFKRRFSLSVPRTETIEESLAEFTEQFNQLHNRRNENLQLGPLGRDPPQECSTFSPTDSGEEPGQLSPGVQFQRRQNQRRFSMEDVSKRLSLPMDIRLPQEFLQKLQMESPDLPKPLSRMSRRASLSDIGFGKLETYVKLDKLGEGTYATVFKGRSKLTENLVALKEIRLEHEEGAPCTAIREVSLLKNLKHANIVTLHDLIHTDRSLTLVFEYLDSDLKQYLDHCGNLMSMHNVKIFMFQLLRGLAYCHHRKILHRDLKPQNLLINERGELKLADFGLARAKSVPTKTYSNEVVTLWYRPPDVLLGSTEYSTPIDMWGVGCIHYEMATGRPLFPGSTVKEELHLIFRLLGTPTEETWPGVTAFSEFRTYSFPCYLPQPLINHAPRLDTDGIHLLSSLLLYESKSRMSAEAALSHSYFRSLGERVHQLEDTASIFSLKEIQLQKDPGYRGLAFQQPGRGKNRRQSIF

panel of 468 kinases [4] = target: T4, panel of 468 kinases (Homo sapiens, UniProt O15197); details: EPHB6; 1 μM; read-out: % control
T4 construct: purchased KINOMEscan (ScanMAX) service
T4 sequence (O15197 32-1021): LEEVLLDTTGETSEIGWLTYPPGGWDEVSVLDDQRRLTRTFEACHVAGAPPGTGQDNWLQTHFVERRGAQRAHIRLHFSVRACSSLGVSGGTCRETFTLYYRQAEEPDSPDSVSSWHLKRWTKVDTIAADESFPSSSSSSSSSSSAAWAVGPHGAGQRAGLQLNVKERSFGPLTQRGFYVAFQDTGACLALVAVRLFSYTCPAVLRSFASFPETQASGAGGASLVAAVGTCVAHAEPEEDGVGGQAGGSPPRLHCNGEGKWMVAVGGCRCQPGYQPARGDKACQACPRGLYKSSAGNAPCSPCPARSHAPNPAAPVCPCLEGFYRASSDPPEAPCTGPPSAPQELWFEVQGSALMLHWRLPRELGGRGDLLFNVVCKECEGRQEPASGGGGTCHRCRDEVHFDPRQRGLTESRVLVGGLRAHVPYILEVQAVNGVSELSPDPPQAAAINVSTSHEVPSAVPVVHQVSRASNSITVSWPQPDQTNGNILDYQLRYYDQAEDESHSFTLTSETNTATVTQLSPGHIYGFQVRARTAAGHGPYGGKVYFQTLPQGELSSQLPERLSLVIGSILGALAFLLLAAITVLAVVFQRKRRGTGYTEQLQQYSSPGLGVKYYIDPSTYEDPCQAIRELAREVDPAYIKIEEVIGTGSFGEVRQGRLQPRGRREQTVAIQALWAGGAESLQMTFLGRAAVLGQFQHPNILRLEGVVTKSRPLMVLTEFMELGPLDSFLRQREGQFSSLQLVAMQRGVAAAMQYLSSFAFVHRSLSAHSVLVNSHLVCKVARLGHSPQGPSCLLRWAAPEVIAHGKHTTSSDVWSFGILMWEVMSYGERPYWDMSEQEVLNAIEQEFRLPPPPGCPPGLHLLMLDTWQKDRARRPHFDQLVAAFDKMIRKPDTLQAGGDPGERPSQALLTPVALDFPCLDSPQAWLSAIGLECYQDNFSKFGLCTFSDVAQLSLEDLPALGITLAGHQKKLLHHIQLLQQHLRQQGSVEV

panel of 468 kinases [5] = target: T5, panel of 468 kinases (Homo sapiens, UniProt Q96PN8); details: TSSK3; 1 μM; read-out: % control
T5 construct: purchased KINOMEscan (ScanMAX) service
T5 sequence (Q96PN8 1-268): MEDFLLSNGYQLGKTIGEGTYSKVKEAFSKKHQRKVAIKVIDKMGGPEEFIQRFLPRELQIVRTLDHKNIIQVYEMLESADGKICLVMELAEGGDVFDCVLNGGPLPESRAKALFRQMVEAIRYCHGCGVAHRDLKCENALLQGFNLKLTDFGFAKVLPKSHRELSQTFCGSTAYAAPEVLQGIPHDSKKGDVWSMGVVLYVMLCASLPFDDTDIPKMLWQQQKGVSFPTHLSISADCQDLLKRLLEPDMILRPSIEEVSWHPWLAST

panel of 468 kinases [6] = target: T6, panel of 468 kinases (Homo sapiens, UniProt P0C1S8); details: WEE2; 1 μM; read-out: % control
T6 construct: purchased KINOMEscan (ScanMAX) service
T6 sequence (P0C1S8 whole entry): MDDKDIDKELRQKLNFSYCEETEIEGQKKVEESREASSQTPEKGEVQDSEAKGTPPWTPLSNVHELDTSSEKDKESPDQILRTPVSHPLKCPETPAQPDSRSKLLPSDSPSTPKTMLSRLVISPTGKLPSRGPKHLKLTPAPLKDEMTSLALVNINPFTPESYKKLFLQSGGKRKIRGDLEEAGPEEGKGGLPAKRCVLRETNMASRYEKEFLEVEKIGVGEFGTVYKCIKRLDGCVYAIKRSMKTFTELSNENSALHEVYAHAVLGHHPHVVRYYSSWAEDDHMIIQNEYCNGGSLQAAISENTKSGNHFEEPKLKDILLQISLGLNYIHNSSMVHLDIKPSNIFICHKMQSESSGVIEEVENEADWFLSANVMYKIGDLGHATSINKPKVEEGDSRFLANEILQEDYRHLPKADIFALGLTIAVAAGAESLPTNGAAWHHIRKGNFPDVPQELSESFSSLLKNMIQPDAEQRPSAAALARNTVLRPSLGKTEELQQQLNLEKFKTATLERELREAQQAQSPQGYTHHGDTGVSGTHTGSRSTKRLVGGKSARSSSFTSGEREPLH

| Structure (SMILES) | remaining binding at 1 µM (panel of 468 kinases [1]) [%] | remaining binding at 1 µM (panel of 468 kinases [2]) [%] | remaining binding at 1 µM (panel of 468 kinases [3]) [%] | remaining binding at 1 µM (panel of 468 kinases [4]) [%] | remaining binding at 1 µM (panel of 468 kinases [5]) [%] | remaining binding at 1 µM (panel of 468 kinases [6]) [%] |
| --- | --- | --- | --- | --- | --- | --- |
| CNc1nc(Nc2ccc(C(=O)N3CCC(N4CCOCC4)CC3)c3c2OCO3)nc2[nH]cc(Cl)c12 [Compound 75, (7-((5-chloro-4-(methylamino)-7H-pyrrolo[2,3-d]pyrimidin-2-yl)amino)benzo[d][1,3]dioxol-4-yl)(4-morpholinopiperidin-1-yl)methanone] | 37 | 100 | 100 | 51 | 100 | 100 |
| CNc1nc(Nc2ccc(S(=O)(=O)N3CCC(N4CCOCC4)CC3)cc2OC)nc2[nH]cc(Cl)c12 [Compound 12, 5-chloro-N2-(2-methoxy-4-((4-morpholinopiperidin-1-yl)sulfonyl)phenyl)-N4-methyl-7H-pyrrolo[2,3-d]pyrimidine-2,4-diamine] | 100 | 100 | 100 | 51 | 100 | 100 |
| CNc1nc(Nc2ccc(P3(=O)CCN(C4CCOCC4)CC3)cc2OC)nc2[nH]cc(Cl)c12 [Compound 77, 4-(4-((5-chloro-4-(methylamino)-7H-pyrrolo[2,3-d]pyrimidin-2-yl)amino)-3-methoxyphenyl)-1-(tetrahydro-2H-pyran-4-yl)-1,4-azaphosphinane 4-oxide] | 84 | 100 | 100 | 49 | 100 | 100 |
